Experimental data: patent US7166621B2, “Pyridyloxyalkanoic acid amide derivatives useful as fungicides” (priority 2001, dated 2007)

Tests used:
Phytophthora infestans = experiment: whole plant or invertebrate; assay type: in vivo; conditions: in Solanum lycopersicum, foliar, 96 h, read-out: control of Phytophthora infestans
Plasmopara viticola = experiment: Leaf disk assay, downy mildew of grapevine, preventive fungicidal activity; assay type: in vivo; conditions: foliar, 168 h
[1] = grapevine leaf disks, preventive, assessed seven days after inoculation

Row | Compound | pest or weed control at 200 ppm (Phytophthora infestans) [%] | pest or weed control at 200 ppm (Plasmopara viticola; [1]) [%] | pest or weed control at 200 ppm (Plasmopara viticola) [%] | also measured
1 | CCC#CC(C)(C)NC(=O)C(CC)Oc1cncc(C(=O)O)c1 (centres unmarked) | – | – | – | melting point: 162 to 164 °C
2 | CC#CC(C)(C)NC(=O)C(CC)Oc1cncc(Br)c1 (single isomer, unassigned; (-)) [(−) isomer of Compound 13 of Table 1, (−) 2-(5-bromo-3-pyridyloxy)-N-(4-methylpent-2-yn-4-yl)butyramide] | ≥ 70 | – | – | –
3 | CCC#CC(C)(C)NC(=O)C(CC)Oc1cncc(Cl)c1 (centres unmarked) [Compound No. 1 of Table 1, 2-(5-chloro-3-pyridyloxy)N-(2-methylhex-3-yn-2-yl)butyramide] | – | ≥ 70 | – | –
4 | CC#CC(C)(C)NC(=O)C(CCC)Oc1cncc(Cl)c1 (centres unmarked) [Compound No. 3 of Table 1, 2-(5chloro-3-pyridyloxy)-N-(2-methylpent-3-yn-2-yl)valeramide] | ≥ 70 | ≥ 70 | – | –
5 | CC#CC(C)(C)NC(=O)C(CC)Oc1cncc(Cl)c1 (centres unmarked) [Compound No. 8 of Table 1, 2-(5-chloro-3-pyridyloxy)-N-(2-methylpent-3-yn-2-yl)butyramide] | – | ≥ 70 | – | –
6 | CC#CC(C)(C)N(C)C(=O)C(CC)Oc1cncc(Cl)c1 (centres unmarked) [Compound No. 10 of Table 1, 2-(5-chloro-3-pyridyloxy)-N-methyl-N-(2-methylpent-3-yn-2-yl)butyramide] | – | ≥ 70 | – | –
7 | CC#CC(C)(C)NC(=O)Cc1ccccc1Oc1cncc(Cl)c1 [Compound No. 11 of Table 1, 2-(5-chloro-3-pyridyloxy)-N-(2-methylpent-3-yn-2-yl)phenylacetamide] | ≥ 70 | – | – | –
8 | CC#CC(C)(C)NC(=O)C(CC)Oc1cncc(Br)c1 (centres unmarked) [Compound No. 13 of Table 1, 2-(5-bromo-3-pyridyloxy)-N-(2-methylpent-3-yn-2-yl)butyramide] | – | ≥ 70 | – | –
9 | CCC#CC(C)(C)NC(=O)C(CC)Oc1cncc(Br)c1 (centres unmarked) [Compound No. 14 of Table 1, 2-(5-bromo-3-pyridyloxy)-N-(2-methylhex-3-yn-2-yl)butyramide] | – | ≥ 70 | – | –
10 | CCC#CC(C)(C)NC(=O)C(CC)Oc1cncc(C(=O)N(C(C)C)C(C)C)c1 (centres unmarked) [Compound No. 15 of Table 1, 2-(5-(N,N-diisopropylaminocarbonyl)-3-pyridyloxy)-N-(5-methylhex-3-yn-5-yl)butyramide] | ≥ 70 | ≥ 70 | – | –
11 | CC#CC(C)(C)NC(=O)C(COC)Oc1cncc(Cl)c1 (centres unmarked) [Compound No. 21 of Table 1, 2-(5-chloro-3-pyridyloxy)-N-(4-methylpent-2-yn-4-yl)-3-methoxypropionamide] | – | – | ≥ 70 | –
12 | CCC(Oc1cncc(Cl)c1)C(=O)NC(C#CC(C)C)OC (centres unmarked) [Compound No. 49 of Table 1, 2-(5-chloro-3-pyridyloxy)-N-(1-methoxy-4-methylpent-2-ynyl)butyramide] | – | – | ≥ 70 | –
13 | CCCC#CC(C)(C)NC(=O)C(CC)Oc1cncc(Cl)c1 (centres unmarked) [Compound No. 120 of Table 1, 2-(5-chloro-3-pyridyloxy)-N-(6-methylhept-4-yn-6-yl)butyramide] | – | ≥ 70 | – | melting point: 70 to 71 °C
14 | CCCC#CC(C)(C)NC(=O)C(CC)Oc1cncc(Br)c1 (centres unmarked) [Compound No. 128 of Table 1, 2-(5-bromo-3-pyridyloxy)-N-(6-methylhept4-yn-6-yl)butyramide] | ≥ 70 | ≥ 70 | – | –
15 | CC#CC(C)(CC)NC(=O)C(CC)Oc1cncc(Cl)c1 (centres unmarked) [Compound No. 136 of Table 1, 2-(5chloro-3-pyridyloxy)-N-(4methylhex-2-yn-4-yl)butyramide] | – | ≥ 70 | – | –
16 | CC#CC(C)(C)NC(=O)C(CC)Oc1cnc(Cl)c(Cl)c1 (centres unmarked) [Compound No. 247 of Table 1, 2-(5,6-dichloro-3-pyridyloxy)-N-(4-methylpent-2-yn-4-yl)butyramide] | – | – | ≥ 70 | –
17 | CCC(Oc1cnc(Cl)c(Cl)c1)C(=O)NC(C)(C)C#CCOC (centres unmarked) [Compound No. 259 of Table 1, 2-(5,6-dichloro-3-pyridyloxy)-N-(1-methoxy-4-methylpent-2-yn-4-yl)butyramide] | – | – | ≥ 70 | –
18 | CC#CC(C)(C)NC(=O)C(CC)Oc1cncc(Oc2ccccc2)c1SC (centres unmarked) [Compound No. 263 of Table 1, 2-(4-methylthio-5-phenoxy-3-pyridyloxy)-N-(4-methylpent-2-yn-4-yl)butyramide] | ≥ 70 | – | ≥ 70 | –
19 | CC#CC(C)(C)NC(=O)C(CC)Oc1cncc(C(C)=O)c1 (centres unmarked) [Compound No. 326 of Table 1, 2-(5-acetyl-3-pyridyloxy)-N-(4-methylpent-2-yn-4-yl)butyramide] | ≥ 70 | – | – | –
20 | CC#CC(C)(C)NC(=O)C(CC)Oc1cncc(C#N)c1 (centres unmarked) [Compound No. 342 of Table 1, 2-(5-cyano-3-pyridyloxy)-N-(4-methylpent-2-yn-4-yl)butyramide] | ≥ 70 | – | ≥ 70 | –
21 | C#Cc1cncc(OC(CC)C(=O)NC(C)(C)C#CC)c1 (centres unmarked) [Compound No. 358 of Table 1, 2-(5-ethynyl-3-pyridyloxy)-N-(4-methylpent-2-yn-4-yl)butyramide] | – | – | ≥ 70 | –
22 | C=Cc1cncc(OC(CC)C(=O)NC(C)(C)C#CC)c1 (centres unmarked) [Compound No. 374 of Table 1, 2-(5-ethenyl-3-pyridyloxy)-N-(4-methylpent-2-yn-4-yl)butyramide] | ≥ 70 | – | – | –
23 | C=C(OCC)c1cncc(OC(CC)C(=O)NC(C)(C)C#CC)c1 (centres unmarked) [Compound No. 378 of Table 1, 2-[5-(1-ethoxyethen-1-yl)-3-pyridyloxy]-N-(4-methylpent-2-yn-4-yl)butyramide] | ≥ 70 | – | – | –
